Assay results taken from patent US12391648B2, “Pyridyloxy thioester derivative and preparation method therefor, herbicidal composition, and application” (Qingdao Kingagroot Chemical Compound Co., Ltd., priority 2018, dated 2025).

Experiments:
Test in all cases: Post-emergence test experiment (Table 3, 1000 g/ha)
Format in all cases: in vivo
Conditions in all cases: post-emergence spray, after 3 weeks, fresh weight inhibition
Abutilon theophrasti = tested on: Abutilon theophrasti
Source text: (§1) The activity level standard of harmful plants destruction (i. e. growth inhibition rate) is as follows: • Level 5: the growth inhibition rate is greater than 85%; • Level 4: the growth inhibition rate is equal to or greater than 60% and less than 85%; • Level 3: the growth inhibition rate is equal to or greater than 40% and less than 60%; • Level 2: the growth inhibition rate is equal to or greater than 20% and less than 40%; • Level 1: the growth inhibition rate is equal to or greater than 5% and less than 20%; • Level 0: the growth inhibition rate is less than 5%;
(§2) The above described growth inhibition rate is fresh weight inhibition rate.
(§3) Post-emergence test experiment: Monocotyledonous and dicotyledonous weed seeds and main crop seeds (i. e. wheat, corn, rice, soybean, cotton, oilseed, millet and sorghum.) were put into a plastic pot loaded with soil. Then covered with 0.5-2 cm soil, the seeds were allowed to grow in good greenhouse environment. The test plants were treated at 2-3 leaf stage 2 weeks after sowing. The test compounds of the invention were dissolved with acetone respectively, then added with tween-80, and using 1.5 liters per hectare of an emulsible concentrate of methyl oleate as a synergist, and diluted by certain amount of water to certain concentration. The solution was sprayed to the plants with a sprayer. Then the plants were cultured for 3 weeks in the greenhouse, and the experiment result of weed controlling effect after 3 weeks was listed in tables 3-4.

Monochoria vaginalis = tested on: Monochoria vaginalis
Source text: as §1, §2, §3

Galium spurium = tested on: Galium spurium
Source text: as §1, §2, §3

Compound | Activity level (growth inhibition rate) Abutilon theophrasti (Abutilon theophrasti) | Activity level (growth inhibition rate) Monochoria Vaginalis (Monochoria vaginalis) | Activity level (growth inhibition rate) Galium spurium (Galium spurium)
CCC(Oc1ncc(Cl)c(N)c1Cl)C(=O)SC (stereo not drawn) [Compound 23] | 5 (Level 5: the growth inhibition rate is greater than 85%) | 5 (Level 5: the growth inhibition rate is greater than 85%) | 5 (Level 5: the growth inhibition rate is greater than 85%)
CCC(Oc1nc(Cl)c(Cl)c(N)c1Cl)C(=O)SC (stereo not drawn) [Compound 24] | 5 (Level 5: the growth inhibition rate is greater than 85%) | 5 (Level 5: the growth inhibition rate is greater than 85%) | 5 (Level 5: the growth inhibition rate is greater than 85%)
CCC(Oc1nc(F)c(Cl)c(N)c1Cl)C(=O)SC (stereo not drawn) [Compound 25] | 5 (Level 5: the growth inhibition rate is greater than 85%) | 5 (Level 5: the growth inhibition rate is greater than 85%) | 5 (Level 5: the growth inhibition rate is greater than 85%)
CCCC(Oc1nc(F)c(Cl)c(N)c1Cl)C(=O)SC (stereo not drawn) [Compound 26] | 5 (Level 5: the growth inhibition rate is greater than 85%) | 5 (Level 5: the growth inhibition rate is greater than 85%) | 5 (Level 5: the growth inhibition rate is greater than 85%)
CSC(=O)C(Oc1nc(F)c(Cl)c(N)c1Cl)C(C)C (stereo not drawn) [Compound 27] | 5 (Level 5: the growth inhibition rate is greater than 85%) | 5 (Level 5: the growth inhibition rate is greater than 85%) | 5 (Level 5: the growth inhibition rate is greater than 85%)
CSC(=O)C(Oc1nc(F)c(Cl)c(N)c1Cl)C1CC1 (stereo not drawn) [Compound 28] | 5 (Level 5: the growth inhibition rate is greater than 85%) | 5 (Level 5: the growth inhibition rate is greater than 85%) | 5 (Level 5: the growth inhibition rate is greater than 85%)
COCC(Oc1nc(F)c(Cl)c(N)c1Cl)C(=O)SC (stereo not drawn) [Compound 29] | 5 (Level 5: the growth inhibition rate is greater than 85%) | 5 (Level 5: the growth inhibition rate is greater than 85%) | 5 (Level 5: the growth inhibition rate is greater than 85%)
COC(C)C(Oc1nc(F)c(Cl)c(N)c1Cl)C(=O)SC (stereo not drawn) [Compound 31] | 5 (Level 5: the growth inhibition rate is greater than 85%) | 5 (Level 5: the growth inhibition rate is greater than 85%) | 5 (Level 5: the growth inhibition rate is greater than 85%)
C=CC(Oc1nc(F)c(Cl)c(N)c1Cl)C(=O)SC (stereo not drawn) [Compound 32] | 5 (Level 5: the growth inhibition rate is greater than 85%) | 5 (Level 5: the growth inhibition rate is greater than 85%) | 5 (Level 5: the growth inhibition rate is greater than 85%)
C#CC(Oc1nc(F)c(Cl)c(N)c1Cl)C(=O)SC (stereo not drawn) [Compound 33] | 5 (Level 5: the growth inhibition rate is greater than 85%) | 5 (Level 5: the growth inhibition rate is greater than 85%) | 5 (Level 5: the growth inhibition rate is greater than 85%)
CSC(=O)C(F)Oc1nc(F)c(Cl)c(N)c1Cl (stereo not drawn) [Compound 34] | 5 (Level 5: the growth inhibition rate is greater than 85%) | 5 (Level 5: the growth inhibition rate is greater than 85%) | 5 (Level 5: the growth inhibition rate is greater than 85%)
CSC(=O)C(Cl)Oc1nc(F)c(Cl)c(N)c1Cl (stereo not drawn) [Compound 35] | 5 (Level 5: the growth inhibition rate is greater than 85%) | 5 (Level 5: the growth inhibition rate is greater than 85%) | 5 (Level 5: the growth inhibition rate is greater than 85%)
CSC(=O)C(Br)Oc1nc(F)c(Cl)c(N)c1Cl (stereo not drawn) [Compound 36] | 5 (Level 5: the growth inhibition rate is greater than 85%) | 5 (Level 5: the growth inhibition rate is greater than 85%) | 5 (Level 5: the growth inhibition rate is greater than 85%)
CSC(=O)C(CCl)Oc1nc(F)c(Cl)c(N)c1Cl (stereo not drawn) [Compound 37] | 5 (Level 5: the growth inhibition rate is greater than 85%) | 5 (Level 5: the growth inhibition rate is greater than 85%) | 5 (Level 5: the growth inhibition rate is greater than 85%)
CSC(=O)C(CF)Oc1nc(F)c(Cl)c(N)c1Cl (stereo not drawn) [Compound 38] | 5 (Level 5: the growth inhibition rate is greater than 85%) | 5 (Level 5: the growth inhibition rate is greater than 85%) | 5 (Level 5: the growth inhibition rate is greater than 85%)
CSC(=O)C(Oc1nc(F)c(Cl)c(N)c1Cl)C(F)F (stereo not drawn) [Compound 39] | 5 (Level 5: the growth inhibition rate is greater than 85%) | 5 (Level 5: the growth inhibition rate is greater than 85%) | 5 (Level 5: the growth inhibition rate is greater than 85%)
CSC(=O)C(CCCl)Oc1nc(F)c(Cl)c(N)c1Cl (stereo not drawn) [Compound 40] | 5 (Level 5: the growth inhibition rate is greater than 85%) | 5 (Level 5: the growth inhibition rate is greater than 85%) | 5 (Level 5: the growth inhibition rate is greater than 85%)
CSC(=O)C(Oc1nc(F)c(Cl)c(N)c1Cl)C(F)(F)F (stereo not drawn) [Compound 41] | 5 (Level 5: the growth inhibition rate is greater than 85%) | 5 (Level 5: the growth inhibition rate is greater than 85%) | 5 (Level 5: the growth inhibition rate is greater than 85%)
CSC(=O)C(CC(F)(F)F)Oc1nc(F)c(Cl)c(N)c1Cl (stereo not drawn) [Compound 42] | 5 (Level 5: the growth inhibition rate is greater than 85%) | 5 (Level 5: the growth inhibition rate is greater than 85%) | 5 (Level 5: the growth inhibition rate is greater than 85%)
CSC(=O)C(C#N)Oc1nc(F)c(Cl)c(N)c1Cl (stereo not drawn) [Compound 43] | 5 (Level 5: the growth inhibition rate is greater than 85%) | 5 (Level 5: the growth inhibition rate is greater than 85%) | 5 (Level 5: the growth inhibition rate is greater than 85%)
CSC(=O)C(CC#N)Oc1nc(F)c(Cl)c(N)c1Cl (stereo not drawn) [Compound 44] | 5 (Level 5: the growth inhibition rate is greater than 85%) | 5 (Level 5: the growth inhibition rate is greater than 85%) | 5 (Level 5: the growth inhibition rate is greater than 85%)
CSC(=O)C(N)Oc1nc(F)c(Cl)c(N)c1Cl (stereo not drawn) [Compound 45] | 5 (Level 5: the growth inhibition rate is greater than 85%) | 5 (Level 5: the growth inhibition rate is greater than 85%) | 5 (Level 5: the growth inhibition rate is greater than 85%)
CSC(=O)C(CN(C)C)Oc1nc(F)c(Cl)c(N)c1Cl (stereo not drawn) [Compound 46] | 5 (Level 5: the growth inhibition rate is greater than 85%) | 5 (Level 5: the growth inhibition rate is greater than 85%) | 5 (Level 5: the growth inhibition rate is greater than 85%)
CSC(=O)C(Oc1nc(F)c(Cl)c(N)c1Cl)SC (stereo not drawn) [Compound 47] | 5 (Level 5: the growth inhibition rate is greater than 85%) | 5 (Level 5: the growth inhibition rate is greater than 85%) | 5 (Level 5: the growth inhibition rate is greater than 85%)
CSC(=O)C(CO)Oc1nc(F)c(Cl)c(N)c1Cl (stereo not drawn) [Compound 48] | 5 (Level 5: the growth inhibition rate is greater than 85%) | 5 (Level 5: the growth inhibition rate is greater than 85%) | 5 (Level 5: the growth inhibition rate is greater than 85%)
